Experimental data published in the supplement of paper PMC11208160.

test: recombinant UMI read abundance after kanamycin selection (control-corrected) (log10(CPM+1)); higher = more efficient recombination; extreme values may be limits of the assay; sequences stand for … in AGTGCAGAGAAAATCGGCCAGTTTTCTCTGCCTGCAGTCCGCATGCCGTGGGACCCCTTGGGTTCTAACCTGTTGCCTAGATTTATGCAGCGGACTGCCTTTCTCCCAAAGTGATAAACCGG…AGGTTGGTTTCACT; site = the 11-nt donor
Summary of the method: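 Values, expressed as log10(CPM+1), derive from recombinant UMI counts converted to CPM, averaged across replicates and scaled by control-derived factors. Plating was with IPTG (0.07 mM) plus kanamycin or unselected, two replicates each. The screen pooled donor and donor-binding-loop pairs for the IS621 bridge recombinase in Escherichia coli.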
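Further: IS621 bridge recombinase in Escherichia coli cells against a fixed T5 target plasmid.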

| Sequence | recombinant UMI read abundance (log10) |
| --- | --- |
| TGGGCGGCATGGACCGGTTTTCCCGGTAATCCGTATTTGGC (site TGGGCGGCTGC) | 2.09 |
| TGGGCGGCATGGACCGGTTTTCCCGGTAATCCGTATTTGGC (site TGGTCGGCTGC) | 0 |
| TGGGCTACATGGACCGGTTTTCCCGGTAATCCGTATTTGCA (site TGGGCTACTTG) | 1.79 |
| TGGGTAACATGGACCGGTTTTCCCGGTAATCCGTATTTGAC (site TGGGTAACTGT) | 1.61 |
| TGGGTAGCATGGACCGGTTTTCCCGGTAATCCGTATTTGGG (site TGGGTAGCTCC) | 0 |
| TGGGTGACATGGACCGGTTTTCCCGGTAATCCGTATTTGAG (site TGGGTGACTCT) | 0.83 |
| TGGTAACCATGGACCGGTTTTCCCGGTAATCCGTATTTGTG (site TGGTAACCTCA) | 0.0137 |
| TGGTCAACATGGACCGGTTTTCCCGGTAATCCGTATTTGCG (site TGGTCAACTCG) | 0.0115 |
| TGGTCCTCATGGACCGGTTTTCCCGGTAATCCGTATTTGTC (site TGGTCCTCTGA) | 1.33 |
| TGGTCGGCATGGACCGGTTTTCCCGGTAATCCGTATTTGGC (site TGGACGGCTGC) | 0 |
| TGGTCGGCATGGACCGGTTTTCCCGGTAATCCGTATTTGGC (site TGGCCGGCTGC) | 0.682 |
| TGGTCGGCATGGACCGGTTTTCCCGGTAATCCGTATTTGGC (site TGGGCGGCTGC) | 0.00726 |
| TGGTCGGCATGGACCGGTTTTCCCGGTAATCCGTATTTGGC (site TGGTCGGCTGC) | 0.268 |
| TGGTCTGCATGGACCGGTTTTCCCGGTAATCCGTATTTGCG (site ACCGTCTCTGA) | 0 |
| TGGTGTACATGGACCGGTTTTCCCGGTAATCCGTATTTGAA (site TGGTGTACTTT) | 0.131 |
| TGGTTTCCATGGACCGGTTTTCCCGGTAATCCGTATTTGCC (site TGGTTTCCTGG) | 0 |

| Sequence | recombinant UMI read abundance (log10) |
| --- | --- |
| TGTAAAGCATGGACCGGTTTTCCCGGTAATCCGTATTTGAC (site TGTAAAGCTGT) | 0.0139 |
| TGTACAACATGGACCGGTTTTCCCGGTAATCCGTATTTGCT (site TGTACAACTAG) | 0.836 |
| TGTACCCCATGGACCGGTTTTCCCGGTAATCCGTATTTGTA (site TGTACCCCTTA) | 0.292 |
| TGTACCCCATGGACCGGTTTTCCCGGTAATCCGTATTTGTA (site TGTCCCCCTTA) | 0.253 |
| TGTACCCCATGGACCGGTTTTCCCGGTAATCCGTATTTGTA (site TGTGCCCCTTA) | 0 |
| TGTACCCCATGGACCGGTTTTCCCGGTAATCCGTATTTGTA (site TGTTCCCCTTA) | 0.00713 |
| TGTACCGCATGGACCGGTTTTCCCGGTAATCCGTATTTGGG (site TGTACCGCTCC) | 0.0251 |
| TGTACCTCATGGACCGGTTTTCCCGGTAATCCGTATTTGGG (site TGTACCTCTCC) | 0.0503 |
| TGTACCTCATGGACCGGTTTTCCCGGTAATCCGTATTTGGT (site TGTACCTCTAC) | 0.0562 |
| TGTACGTCATGGACCGGTTTTCCCGGTAATCCGTATTTGTT (site AGTACGTCTAA) | 0.00241 |
| TGTACGTCATGGACCGGTTTTCCCGGTAATCCGTATTTGTT (site CGTACGTCTAA) | 0.031 |
| TGTACGTCATGGACCGGTTTTCCCGGTAATCCGTATTTGTT (site GGTACGTCTAA) | 0.031 |
| TGTACGTCATGGACCGGTTTTCCCGGTAATCCGTATTTGTT (site TGTACGTCTAA) | 0.00887 |
| TGTACTACATGGACCGGTTTTCCCGGTAATCCGTATTTGGT (site TGTACTACTAC) | 0.00344 |
| TGTAGAACATGGACCGGTTTTCCCGGTAATCCGTATTTGCC (site TGTAGAACTGG) | 0.754 |
| TGTAGAACATGGACCGGTTTTCCCGGTAATCCGTATTTGGG (site TGTAGAACTCC) | 0.00647 |
